Patent US12600742B2, “Markers, conjugates, compositions and methods for hypoxia imaging, mapping, and therapy” (WWIKY BIOSCIENCES INC., priority 2017, dated 2026)

Experiments:
FaDu tumors = test: In vivo evaluation of radiosensitization therapy by IAZA using click mapping; design: species or system Nu/Nu mice
Method: Tissue sections were air dried for 25 minutes, fixed for 5 minutes in −20° C. acetone; air dried 25 minutes and blocked in PBS with 1% BSA for 20 minutes. Sections were incubated with primary antibodies for small vessel endothelium [1:100 rabbit anti-CD34 (abcam)] or hypoxia [1:100 rabbit anti-pimonidazole Hypoxyprobe)] for 2 hours at room temperature, followed by 3 five minute washes in 1×PBS. The secondary antibody (Alexafluor 647 goat anti-rabbit 1:1000 Molecular Probes with 1×DAPI to stain DNA) was incubated for 30 minutes at […] room temperature in the dark, followed by 3 five minute washes with 1×PBS. The Click-IT reaction cocktail was incubated with the sections for 30 minutes. Sections were washed 5 times with 1×PBS for 5 minutes and mounted using Mowiol 4-88 (Calbiochem) mounting media. Slides were stored at 4° C. until imaged. Images were obtained by tile scan with a Plan-Apochromat 10X/0.45 numerical aperture lens on a Zeiss 710 confocal microscope using Zen 2011 software. […]
Male Nu/Nu mice (Charles River Laboratories) aged 6 weeks were used and cared for according to the CCAC guidelines. […] The tumors were measured daily until the volume reached 0.4 cm3. […] Temperature and respiration were monitored and recorded every five minutes throughout the scans (Small animal Monitoring and Gating System, SA Instruments Inc.). […] Animals were monitored and tumors measured for up to 16 days. […]

[1] = system: human and murine cancer cell lines; settings: literature; cited from earlier work
FaDu cells [2] = test: Comparison of hypoxia selective uptake of ACN and Pimonidazole in vitro; assay type: cell-based, human
Method: FaDu cells were grown on coverslips (as described above) and treated simultaneously with 100 μM ACN and 100 μM Pimonidazole. The cells were subsequently exposed to normoxic (20% Oxygen), hypoxic (1% Oxygen) or anoxic (0% Oxygen) conditions for 6 hours, and fixed in 2% PFA. Standard Pimonidazole IHC was performed as described elsewhere using an Alexafluor 647 labelled secondary antibody. Click chemistry was performed as previously described using an Alexafluor 555 conjugated alkyne followed by nuclear staining with Hoechst. Mounted coverslips on glass slides were imaged as described earlier.

FaDu xenograft tumors = test: Assessment of ACN as a hypoxia tracer in tumor-bearing mice; assay type: in vivo, BALB/c nude mice; settings: 80 mg/Kg intraperitoneally, 2 hours post-injection
Method: Female BALB/c nude mice (Charles River Laboratories) aged 6 weeks were used and cared for according to the CCAC guidelines. We used a biflanked sub-cutaneous tumor model where the tumor in the left flank was untreated (control) and the tumor in the right flank served as the ‘treatment’ group. We subcutaneously injected 6×10^6 FaDu cells in 0.1 ml of sterile 0.9% NaCl into the upper right flank to form palpable tumors. The tumors were measured daily until the volume reached 10 mm3. The mice were divided into 4 groups and injected intraperitoneally in 0.15 ml 0.9% saline with: 1-80 mg/Kg ACN, 2-80 mg/Kg pimonidazole (Hypoxyprobe), 3-80 mg/Kg ACN:pimonidazole in a 1:1 ratio and 4-0.9% saline control. Mice were sacrificed 2 hours post-injection, tumors removed and frozen in OCT. Seven micron serial sections were taken of each tumor, dried and stored at −80° C.
Tissue sections were air dried for 25 minutes, fixed for 5 minutes in −20° C. acetone; air dried 25 minutes and blocked in PBS with 1% BSA for 20 minutes. Sections were incubated with primary antibodies for small vessel endothelium [1:100 rabbit anti-CD34 (abcam)] or hypoxia [1:100 rabbit anti-pimonidazole Hypoxyprobe)] for 2 hours at room temperature, followed by 3 five minute washes in 1×PBS. […]

FaDu cells [3] = test: Crystal violet staining (CVS) assay; assay type: cell-based, human
Method: FaDu cells (3000 cells/well) were seeded on 96-well microtitre plates and were incubated overnight at 37° C. with 5% CO2 to get attached to the surface. Next day, the cells were treated with increasing doses of drug (1-100 μM) and the plates were incubated under normoxic (20% O2) and hypoxic (0.1% O2) conditions for 72 hours. Culture medium (DMEM and low glucose DMEM) without cells was set for background, according to the experimental set up. After the required incubation period, the media was aspirated, and the plates were allowed to dry for a few minutes followed by addition of crystal violet solution for 20 minutes in order to stain the cells. Subsequently, the dye was discarded, plates were washed with water and let to dry overnight. Methanol (150 μL) was added to the wells and incubated for 20 minutes, so as to dissolve the crystals. Absorbance of the samples was measured spectrophotometrically using an ELISA plate reader at a wavelength of 520 nm. The absorbance of background wavelength (media only) was subtracted from the other absorbance results.
FIG. 10 depicts hypoxic selective cytotoxicity of A-TPZ. […] In CVS assay (i), FaDu cells (3000 cells/well) were seeded on 96 well plates and were incubated overnight to adhere. The cells were then treated with increasing doses of A-TPZ and the plates were exposed to both normoxic (20% O2) and hypoxic (0.1% O2) conditions for 72 hours. Culture medium (DMEM) without cells was set for background. Media was aspirated post-treatment followed by addition of crystal violet solution to stain the cells. Crystals were dissolved using methanol and absorbance of the samples was measured spectrophotometrically. Error bars represent the standard error of the mean. In CFA, (ii), FaDu cells (optimum density-ranging from 300 to 3000 cells) were seeded on 60 mm plates and were incubated overnight to adhere. Next day, the cells were treated with increasing A-TPZ doses and the plates were exposed to both normoxic (20% O2) and hypoxic (0.5% O2) conditions for 24 hours. […] Colonies were stained with crystal violet solution and counted. […]

FaDu cells [4] = test: Hypoxia-selective sub-cellular localization of A-TPZ, click chemistry; assay type: cell-based, human
Method: FaDu cells (˜0.5 million) were seeded on coverslips in 30 mm dishes and were incubated overnight at 37° C. with 5% CO2 to get attached to the surface. Cells were then treated with increasing concentrations (1-30 μM) of drug (reconstituted in DMSO at concentration of 0.5 M) and were incubated under normoxic and hypoxic (<0.1% O2) conditions for 24 hours. Post-treatment, cells were fixed with 2% paraformaldehyde for 20 minutes followed by blocking and permeabilization in 1% BSA and 0.1% Triton-X-100 for 20 minutes. Click reaction was performed in the presence of Alexa 594 alkyne using the Click-iT Cell Reaction Buffer Kit (Thermo Fisher Scientific, no: C10269), according to manufacturer's protocol. Nuclei were counterstained with Hoechst, and images were obtained using confocal microscopy.
FaDu cells were seeded on coverslips and were incubated overnight to adhere. The cells were then treated with increasing doses of A-TPZ for 24 hours under normoxic and hypoxic (<0.1% O2) conditions. Cells were fixed in 2% paraformaldehyde and Click chemistry was performed at room temperature for 30 minutes using Alexa 594 alkyne. Nuclei were counterstained with Hoechst, and images were obtained using confocal microscopy.

In the case of `O=[N+]([O-])c1nccn1[C@@H]1O[C@H](C[125I])[C@@H](O)[C@@H]1O` [IAZA], the “effect on tumor and hypoxia, IAZA and radiation co-treated” value (FaDu tumors; 400 mg/Kg IAZA + single dose of 10 Gy radiation) is given as “both tumor shrinkage and reduced hypoxia”, the “effect on tumor hypoxia, IAZA alone” value (FaDu tumors; 400 mg/Kg IAZA intraperitoneally, no radiation, ACN click mapping) is given as “had no effect on hypoxia” and the “toxicity to cancer cell lines (reported)” value [1] is given as “low toxicity”. The “uptake by cells (reported)” value [1] was “selectively taken up by hypoxic cells”.

In the case of `O=[N+]([O-])c1nccn1CC(O)CN1CCCCC1` (stereo not shown) [Pimonidazole, reference compound], the “staining detected by oxygen condition” value (FaDu cells [2]; 100 μM of each compound, 6 h) is reported as “detected in oxygen deprived cells”, the “sub-cellular distribution of signal” value (FaDu cells [2]; hypoxic <0.1% O2 cells, 100 μM) is reported as “mostly concentrated in the cytoplasm” and the “localization in tumor sections” value (FaDu xenograft tumors) is reported as “co-localize to hypoxic areas bordering necrotic regions”.

With `[N-]=[N+]=NCCOCCNc1n[n+]([O-])c2ccccc2[n+]1[O-]` [A-TPZ, 3-(2-(2-Azidoethoxy)ethyl)amino-1,2,4-benzotriazine 1,4-dioxide] the “cytotoxicity under hypoxia (CVS)” value (FaDu cells [3]; 0.1% O2, 72 hours, 1-100 μM) was “selective cytotoxicity in low oxygen levels”, the “toxicity in the normoxic group (CVS)” value (FaDu cells [3]; 20% O2, 72 hours) was “minimal toxicity” and the “toxicity compared to parent compound TPZ” value (FaDu cells [3]; data not shown) was “slightly less toxic”. For the same compound, the “dose dependence of signal intensity” value (FaDu cells [4]; 1-30 μM, hypoxia) was “dose-dependent”, the “click fluorescence localization in hypoxic cells” value (FaDu cells [4]; hypoxia (<0.1 O2), 24 hours, 1-30 μM) was “selective sub-cellular localization” and the “click fluorescence in normoxic drug treated cells” value (FaDu cells [4]; normoxic, 24 hours) was “No fluorescence”.
